Assay results taken from patent publication US9758524B2, “4-imidazopyridazin-1-yl-benzamides as Btk inhibitors” (Merck Sharp & Dohme B.V., priority 2011, dated 2017).
Read-outs that look alike come from different tables or passages of the source.

Tests used:
Src enzyme = Src enzyme (Homo sapiens (Human), UniProt P12931); assay: Src enzyme activity (IMAP fluorescence polarization assay); conditions: read-out: EC50 Src activity values; IMAP, 60 min pre-incubation, 4 μM ATP
FynT enzyme = FynT enzyme (Homo sapiens (Human), UniProt P06241); assay: FynT enzyme activity (IMAP fluorescence polarization assay); format: biochemical; conditions: 60 min pre-incubation, 0.2 μM ATP
FynT enzyme, sequence (P06241 other isoform, or with tags, fused parts or gaps): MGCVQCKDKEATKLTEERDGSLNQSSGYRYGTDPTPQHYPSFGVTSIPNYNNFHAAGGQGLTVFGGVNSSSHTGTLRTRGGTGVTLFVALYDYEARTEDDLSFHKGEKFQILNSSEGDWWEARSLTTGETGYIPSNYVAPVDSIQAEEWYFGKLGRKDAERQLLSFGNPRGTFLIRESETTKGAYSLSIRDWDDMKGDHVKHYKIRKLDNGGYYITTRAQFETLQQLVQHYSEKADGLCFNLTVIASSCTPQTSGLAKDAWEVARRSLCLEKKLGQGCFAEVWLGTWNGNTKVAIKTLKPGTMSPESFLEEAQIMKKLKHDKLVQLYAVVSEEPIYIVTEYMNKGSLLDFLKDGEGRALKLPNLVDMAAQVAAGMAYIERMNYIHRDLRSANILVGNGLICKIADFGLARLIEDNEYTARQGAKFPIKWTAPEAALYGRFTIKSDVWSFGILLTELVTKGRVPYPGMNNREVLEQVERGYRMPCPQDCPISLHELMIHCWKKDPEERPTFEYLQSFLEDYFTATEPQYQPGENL
Outline: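 Human FynT pre-incubated with compounds 60 min at room temperature, then reacted 2 h at room temperature with fluorescein-labelled p34cdc2 peptide (100 nM final). Stopped with IMAP binding solution; fluorescence polarization read after 60 min. Activity as % of ±ATP control difference; EC50 by curve fitting.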

Lck enzyme = Lck enzyme (Homo sapiens (Human), UniProt P06239); assay: Lck enzyme activity (IMAP fluorescence polarization assay)
Lck enzyme, sequence (P06239 whole entry): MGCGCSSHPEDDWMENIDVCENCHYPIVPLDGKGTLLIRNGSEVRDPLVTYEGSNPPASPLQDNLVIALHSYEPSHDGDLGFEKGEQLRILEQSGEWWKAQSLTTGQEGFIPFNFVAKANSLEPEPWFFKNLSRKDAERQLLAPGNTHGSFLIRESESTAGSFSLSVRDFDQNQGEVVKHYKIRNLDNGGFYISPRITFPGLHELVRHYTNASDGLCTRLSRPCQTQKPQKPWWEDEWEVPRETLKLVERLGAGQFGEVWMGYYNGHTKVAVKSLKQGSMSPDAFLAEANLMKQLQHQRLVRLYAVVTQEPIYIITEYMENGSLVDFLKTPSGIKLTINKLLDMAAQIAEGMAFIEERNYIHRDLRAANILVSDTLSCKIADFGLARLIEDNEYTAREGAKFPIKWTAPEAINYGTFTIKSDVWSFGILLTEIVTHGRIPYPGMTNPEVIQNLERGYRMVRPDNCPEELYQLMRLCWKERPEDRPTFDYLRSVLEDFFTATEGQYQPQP

Lyn enzyme = Lyn enzyme (Homo sapiens (Human), UniProt P07948); assay: Lyn enzyme activity (IMAP fluorescence polarization assay); conditions: for EC50 Lyn activity values: bin bound in μM
Lyn enzyme, sequence (P07948 whole entry): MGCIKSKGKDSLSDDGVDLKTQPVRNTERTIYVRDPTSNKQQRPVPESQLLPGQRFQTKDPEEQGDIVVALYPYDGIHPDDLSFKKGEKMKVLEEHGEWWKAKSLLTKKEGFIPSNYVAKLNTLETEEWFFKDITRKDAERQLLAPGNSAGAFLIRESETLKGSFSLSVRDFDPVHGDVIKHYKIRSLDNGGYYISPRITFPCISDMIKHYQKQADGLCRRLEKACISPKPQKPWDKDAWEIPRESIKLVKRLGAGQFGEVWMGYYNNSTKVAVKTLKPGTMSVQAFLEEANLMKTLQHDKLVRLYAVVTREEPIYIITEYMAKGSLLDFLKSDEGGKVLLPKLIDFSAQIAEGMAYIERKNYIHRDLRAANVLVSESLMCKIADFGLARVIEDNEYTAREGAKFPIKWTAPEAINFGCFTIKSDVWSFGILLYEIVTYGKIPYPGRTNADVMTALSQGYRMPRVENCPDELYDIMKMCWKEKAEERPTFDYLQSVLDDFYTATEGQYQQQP

Btk enzyme (His-Btk) = Btk enzyme (His-Btk) (Homo sapiens (Human), UniProt Q06187); assay: Btk enzyme activity (IMAP fluorescence polarization assay)
Btk enzyme (His-Btk), sequence (Q06187 whole entry): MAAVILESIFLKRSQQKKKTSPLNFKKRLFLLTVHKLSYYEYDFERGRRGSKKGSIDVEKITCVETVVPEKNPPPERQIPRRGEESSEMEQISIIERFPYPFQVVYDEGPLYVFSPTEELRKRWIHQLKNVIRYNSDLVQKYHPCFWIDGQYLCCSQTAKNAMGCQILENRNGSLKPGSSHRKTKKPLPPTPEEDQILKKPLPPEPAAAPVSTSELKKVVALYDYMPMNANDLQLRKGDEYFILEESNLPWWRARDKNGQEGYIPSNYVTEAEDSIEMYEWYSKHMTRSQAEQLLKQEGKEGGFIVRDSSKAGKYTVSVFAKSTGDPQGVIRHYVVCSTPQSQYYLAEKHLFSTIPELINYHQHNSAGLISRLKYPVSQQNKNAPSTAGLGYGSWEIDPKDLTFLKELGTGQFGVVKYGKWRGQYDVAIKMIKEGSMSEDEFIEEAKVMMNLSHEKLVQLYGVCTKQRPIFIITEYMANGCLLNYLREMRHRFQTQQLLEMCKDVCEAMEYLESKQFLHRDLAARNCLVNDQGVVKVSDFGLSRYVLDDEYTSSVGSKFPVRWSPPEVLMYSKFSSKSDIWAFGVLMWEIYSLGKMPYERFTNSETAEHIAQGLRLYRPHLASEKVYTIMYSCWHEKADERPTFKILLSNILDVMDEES
Experimental: Inhibition of kinase activity can be measured using the Immobilized Metal Assay for Phosphochemicals (IMAP) assay. IMAP is a homogeneous fluorescence polarization (FP) assay based on affinity capture of phosphorylated peptide substrates. IMAP uses fluorescein-labeled peptide substrates that, upon phosphorylation by a protein kinase, bind to so-called IMAP nanoparticles, which are derivatized with trivalent metal complexes.
Final peptide substrate concentration in assay is 50 nM.

[1] = read-out: EC50 Lck activity values, IMAP, 60 min pre-incubation, 6 μM ATP, bin bound in μM
[2] = read-out: EC50 Lyn activity values, 60 min pre-incubation, 2 μM ATP, bin bound in μM
[3] = read-out: EC50 Btk activity values, IMAP, 60 min pre-incubation, 5 μM ATP, bin bound in nM
[4] = IMAP, 60 min pre-incubation, 6 μM ATP, bin bound in μM
[5] = 60 min pre-incubation, 2 μM ATP
[6] = EC50 Lyn activity values, 60 min pre-incubation, 2 μM ATP, bin bound in nM

Src enzyme, sequence (P12931 whole entry, looked up): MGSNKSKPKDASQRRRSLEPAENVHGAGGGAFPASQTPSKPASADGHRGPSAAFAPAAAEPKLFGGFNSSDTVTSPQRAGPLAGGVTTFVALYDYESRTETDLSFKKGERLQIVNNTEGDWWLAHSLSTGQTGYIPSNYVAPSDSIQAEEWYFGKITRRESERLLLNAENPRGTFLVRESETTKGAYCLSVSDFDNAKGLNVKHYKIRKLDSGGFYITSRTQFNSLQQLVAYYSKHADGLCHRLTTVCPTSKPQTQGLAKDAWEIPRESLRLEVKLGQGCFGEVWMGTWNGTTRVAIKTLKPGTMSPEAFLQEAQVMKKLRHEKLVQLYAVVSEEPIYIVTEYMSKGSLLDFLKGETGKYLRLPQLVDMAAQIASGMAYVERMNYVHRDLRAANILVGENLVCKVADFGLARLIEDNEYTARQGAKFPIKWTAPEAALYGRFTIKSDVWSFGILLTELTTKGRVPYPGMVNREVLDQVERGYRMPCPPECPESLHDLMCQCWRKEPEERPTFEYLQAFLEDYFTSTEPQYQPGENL

Compound | EC50 (Src enzyme) | EC50 (FynT enzyme) | EC50 (Lck enzyme; [1]) | EC50 (Lyn enzyme; [2]) | EC50 (Btk enzyme (His-Btk)) | EC50 Btk activity values (Btk enzyme (His-Btk); IMAP, 60 min pre-incubation, 5 μM ATP, bin bound in nM) | EC50 (Btk enzyme (His-Btk); [3]) | EC50 (Lck enzyme) | EC50 Lck activity values (Lck enzyme; [4]) | EC50 Lyn activity values (Lyn enzyme; [5]) | EC50 (Lyn enzyme; [6])
Nc1nccn2c([C@@H]3CCCN3C(=O)c3ccnc(Cl)n3)nc(-c3ccc(C(=O)Nc4cc(C(F)(F)F)ccn4)cc3)c12 [Example 119, (S)-4-(8-amino-3-(1-(2-chloropyrimidine-4-carbonyl)pyrrolidin-2-yl)imidazo[1,5-a]pyrazin-1-yl)-N-(4-(trifluoromethyl)pyridin-2-yl)benzamide] | ≥ 1000 nM | ≥ 1000 nM | ≥ 1 µM | ≥ 1 µM | 10 to 100 nM | <100 nM |  |  |  |  | 
COC/C=C/C(=O)N1CCOC[C@H]1c1nc(-c2ccc(C(=O)Nc3ccccn3)cc2)c2c(N)nccn12 [Example 120, (R,E)-4-(8-amino-3-(4-(4-methoxybut-2-enoyl)morpholin-3-yl)imidazo[1,5-a]pyrazin-1-yl)-N-(pyridin-2-yl)benzamide] | ≥ 1000 nM | ≥ 1000 nM | ≥ 1 µM | ≥ 1 µM |  |  | < 10 nM |  |  |  | 
CCCc1ccnc(NC(=O)c2ccc(-c3nc([C@@H]4CCCCN4C(=O)/C=C/COC)n4ccnc(N)c34)cc2)c1 [Example 121, (S,E)-4-(8-amino-3-(1-(4-methoxybut-2-enoyl)piperidin-2-yl)imidazo[1,5-a]pyrazin-1-yl)-N-(4-propylpyridin-2-yl)benzamide] | ≥ 1000 nM | ≥ 1000 nM | ≥ 1 µM | ≥ 1 µM |  |  | < 10 nM |  |  |  | 
C=CC(=O)N1CCC[C@H]1c1nc(-c2ccc(C(=O)Nc3cc(C#N)ccn3)cc2)c2c(N)nccn12 [Example 122, (S)-4-(3-(1-acryloylpyrrolidin-2-yl)-8-aminoimidazo[1,5-a]pyrazin-1-yl)-N-(4-cyanopyridin-2-yl)benzamide] | ≥ 1000 nM | ≥ 1000 nM |  | ≥ 1 µM |  |  | < 10 nM | 0.1 to 1 µM | <1 µM |  | 
CC#CC(=O)N1CCC[C@H]1c1nc(-c2ccc(C(=O)Nc3cc(OC)ccn3)cc2)c2c(N)nccn12 [Example 123, (S)-4-(8-amino-3-(1-but-2-ynoylpyrrolidin-2-yl)imidazo[1,5-a]pyrazin-1-yl)-N-(4-methoxypyridin-2-yl)benzamide] | ≥ 1000 nM | ≥ 1000 nM | ≥ 1 µM | ≥ 1 µM |  |  | < 10 nM |  |  |  | 
C=CC(=O)N1CCC[C@H]1c1nc(-c2ccc(C(=O)Nc3cc(C)ccn3)cc2)c2c(N)nccn12 [Example 124, (S)-4-(3-(1-acryloylpyrrolidin-2-yl)-8-aminoimidazo[1,5-a]pyrazin-1-yl)-N-(4-methylpyridin-2-yl)benzamide] | ≥ 1000 nM | ≥ 1000 nM |  |  |  |  | < 10 nM | 0.1 to 1 µM | <1 µM | <1 µM | 0.1 to 1 µM
C=CC(=O)N1CCC[C@H]1c1nc(-c2ccc(C(=O)Nc3cc(CCC)ccn3)cc2)c2c(N)nccn12 [Example 125, (S)-4-(3-(1-acryloylpyrrolidin-2-yl)-8-aminoimidazo[1,5-a]pyrazin-1-yl)-N-(4-propylpyridin-2-yl)benzamide] | ≥ 1000 nM | ≥ 1000 nM |  |  |  |  | < 10 nM | 0.1 to 1 µM | <1 µM | <1 µM | 0.1 to 1 µM
C=CC(=O)N1CCC[C@H]1c1nc(-c2ccc(C(=O)Nc3cc(CC)ccn3)cc2)c2c(N)nccn12 [Example 126, (S)-4-(3-(1-acryloylpyrrolidin-2-yl)-8-aminoimidazo[1,5-a]pyrazin-1-yl)-N-(4-ethylpyridin-2-yl)benzamide] | ≥ 1000 nM | ≥ 1000 nM |  |  |  |  | < 10 nM | 0.1 to 1 µM | <1 µM | <1 µM | 0.1 to 1 µM
COC/C=C/C(=O)N1CCC[C@H]1c1nc(-c2ccc(C(=O)Nc3cc(C(F)(F)F)ccn3)cc2)c2c(N)nccn12 [Example 128, (S,E)-4-(8-amino-3-(1-(4-methoxybut-2-enoyl)pyrrolidin-2-yl)imidazo[1,5-a]pyrazin-1-yl)-N-(4-(trifluoromethyl)pyridin-2-yl)benzamide] | ≥ 1000 nM | ≥ 1000 nM | ≥ 1 µM | ≥ 1 µM |  |  | < 10 nM |  |  |  | 
Cc1ccnc(NC(=O)c2ccc(-c3nc([C@@H]4CCCN4C(=O)c4ccnc(Cl)n4)n4ccnc(N)c34)cc2)c1 [Example 129, (S)-4-(8-amino-3-(1-(2-chloropyrimidine-4-carbonyl)pyrrolidin-2-yl)imidazo[1,5-a]pyrazin-1-yl)-N-(4-methylpyridin-2-yl)benzamide] | ≥ 1000 nM | ≥ 1000 nM | ≥ 1 µM | ≥ 1 µM |  |  | < 10 nM |  |  |  | 
CC#CC(=O)N1CCC[C@H]1c1nc(-c2ccc(C(=O)Nc3cc(C#N)ccn3)cc2)c2c(N)nccn12 [Example 130, (S)-4-(8-amino-3-(1-but-2-ynoylpyrrolidin-2-yl)imidazo[1,5-a]pyrazin-1-yl)-N-(4-cyanopyridin-2-yl)benzamide] | ≥ 1000 nM | ≥ 1000 nM | ≥ 1 µM | ≥ 1 µM |  |  | < 10 nM |  |  |  | 
CC#CC(=O)N1CCC[C@H]1c1nc(-c2ccc(C(=O)Nc3cc(CC)ccn3)cc2)c2c(N)nccn12 [Example 131, (S)-4-(8-amino-3-(1-but-2-ynoylpyrrolidin-2-yl)imidazo[1,5-a]pyrazin-1-yl)-N-(4-ethylpyridin-2-yl)benzamide] | ≥ 1000 nM | ≥ 1000 nM | ≥ 1 µM | ≥ 1 µM |  |  | < 10 nM |  |  |  | 
CC#CC(=O)N1CCC[C@H]1c1nc(-c2ccc(C(=O)Nc3cc(-c4ccccc4)ccn3)cc2)c2c(N)nccn12 [Example 132, (S)-4-(8-amino-3-(1-but-2-ynoylpyrrolidin-2-yl)imidazo[1,5-a]pyrazin-1-yl)-N-(4-phenylpyridin-2-yl)benzamide] | ≥ 1000 nM | ≥ 1000 nM |  | ≥ 1 µM |  |  | < 10 nM | 0.1 to 1 µM | <1 µM |  | 
C=CC(=O)N1CCC[C@H]1c1nc(-c2ccc(C(=O)Nc3cc(-c4ccccc4)ccn3)cc2)c2c(N)nccn12 [Example 133, (S)-4-(3-(1-acryloylpyrrolidin-2-yl)-8-aminoimidazo[1,5-a]pyrazin-1-yl)-N-(4-phenylpyridin-2-yl)benzamide] | ≥ 1000 nM | ≥ 1000 nM |  |  |  |  | < 10 nM | 0.1 to 1 µM | <1 µM | <1 µM | 0.1 to 1 µM
